Assay results as given in ChEMBL document CHEMBL1250550, “Design, synthesis, biological evaluation, and modeling of a non-carbohydrate antagonist of the myelin-associated glycoprotein” (Bioorg Med Chem, 2010).

Legend:
[1] = biological target: T1, Myelin-associated glycoprotein (Mus musculus) (UniProt P20917); test: Antagonist activity at mouse MAGd1-3Fc domain expressed in CHO-Lec1 cells by fluorescent hapten binding assay relative to (2R,4R,5S,6R)-5-acetamido-6-((1R,2R)-3-benzamido-1,2-dihydroxypropyl)-2-(benzyloxy)-4-hydroxytetrahydro-2H-pyran-2-carboxylate; assay type: cell-based
T1 sequence (whole entry): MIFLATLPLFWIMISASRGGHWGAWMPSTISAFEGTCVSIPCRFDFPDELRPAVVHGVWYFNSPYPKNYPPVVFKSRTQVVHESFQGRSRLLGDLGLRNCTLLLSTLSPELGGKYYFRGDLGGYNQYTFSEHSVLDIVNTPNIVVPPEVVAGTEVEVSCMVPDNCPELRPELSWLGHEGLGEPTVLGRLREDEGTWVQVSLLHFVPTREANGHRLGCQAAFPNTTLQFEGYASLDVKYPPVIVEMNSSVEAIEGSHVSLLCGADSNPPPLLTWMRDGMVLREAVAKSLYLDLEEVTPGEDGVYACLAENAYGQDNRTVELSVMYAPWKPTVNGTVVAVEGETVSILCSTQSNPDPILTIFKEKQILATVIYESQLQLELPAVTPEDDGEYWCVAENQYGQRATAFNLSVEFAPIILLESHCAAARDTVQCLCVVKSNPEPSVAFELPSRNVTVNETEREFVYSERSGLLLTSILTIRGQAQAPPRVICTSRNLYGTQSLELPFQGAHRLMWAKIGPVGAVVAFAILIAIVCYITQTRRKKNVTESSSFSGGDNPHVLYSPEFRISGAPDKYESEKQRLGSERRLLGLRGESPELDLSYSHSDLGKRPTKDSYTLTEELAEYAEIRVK

[2] = biological target: T2, Myelin-associated glycoprotein (Mus musculus, UniProt P20917); test: Binding affinity to mouse MAGd1-3Fc domain expressed in CHO-Lec1 cells by surface plasmon resonance
T2 sequence (P20917 whole entry): T1 sequence (whole entry)

## O=C(CF)N[C@H]1[C@H]([C@H](O)[C@H](O)CNC(=O)c2ccc(Cl)cc2)O[C@@](OCc2cccc(F)c2F)(C(=O)O)C[C@@H]1O
[1]
  Ratio IC50: 0.02
[2]
  Kd: 0.5 µM

## CC(=O)N[C@H]1[C@H]([C@H](O)[C@H](O)CNC(=O)c2ccccc2)O[C@@](OCc2ccccc2)(C(=O)O)C[C@@H]1O
[2]
  Kd: 26 µM

## CC(=O)N[C@H]1C[C@](OCc2ccccc2)(C(=O)O)C[C@@H](OCCNC(=O)c2ccc(Cl)cc2)[C@@H]1NC(=O)CF
[1]
  Ratio IC50: 4300
[2]
  Kd: > 800 µM
